# Experimental data taken from ChEMBL document CHEMBL1201862, “PubChem BioAssay data set” (2004).
# Calls of active or inactive are those of the source.
# Columns and labels:
# Coagulation factor XII = biological target: T1, Coagulation factor XII (Homo sapiens, UniProt P00748); format: functional;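 further: activated factor XIIa alpha cleaving a fluorogenic AMC peptide substrate; inhibitor potency from loss of enzyme activity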
# T1 sequence (P00748 whole entry): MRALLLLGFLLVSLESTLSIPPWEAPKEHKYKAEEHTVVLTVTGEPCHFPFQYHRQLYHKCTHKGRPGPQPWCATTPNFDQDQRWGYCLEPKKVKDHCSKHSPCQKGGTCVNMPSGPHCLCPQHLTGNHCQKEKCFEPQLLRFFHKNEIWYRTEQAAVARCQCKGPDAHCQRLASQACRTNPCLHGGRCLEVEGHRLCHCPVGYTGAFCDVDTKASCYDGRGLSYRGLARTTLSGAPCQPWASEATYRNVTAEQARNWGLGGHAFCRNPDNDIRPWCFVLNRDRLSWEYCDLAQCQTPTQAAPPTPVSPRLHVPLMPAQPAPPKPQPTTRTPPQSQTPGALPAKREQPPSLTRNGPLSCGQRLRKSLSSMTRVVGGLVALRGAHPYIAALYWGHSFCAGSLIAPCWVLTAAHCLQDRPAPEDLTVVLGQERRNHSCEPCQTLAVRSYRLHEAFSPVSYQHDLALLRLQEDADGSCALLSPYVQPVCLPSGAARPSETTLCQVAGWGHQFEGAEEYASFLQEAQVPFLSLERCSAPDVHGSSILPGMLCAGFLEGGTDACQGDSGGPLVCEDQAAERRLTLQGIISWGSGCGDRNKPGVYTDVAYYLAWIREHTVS
# [1] = biological target: T2, Voltage-gated N-type calcium channel alpha-1B subunit/Amyloid beta A4 precursor protein-binding family A member 1 (Homo sapiens, UniProt Q00975+Q02410); format: protein assay
# [2] = biological target: T2, Voltage-gated N-type calcium channel alpha-1B subunit/Amyloid beta A4 precursor protein-binding family A member 1; format: protein assay; remark: listed apart in the source
# [3] = Luminescence Cell-Based Dose Retest to Confirm Inhibitors of Cancer Stem Cells. [Related pubchem assays (depositor defined):AID2717, AID2721]; format: functional; conditions: Homo sapiens
# [4] = THP-1 cell cytotoxicity, dose response, cytotoxicity control for non-replicating M. tuberculosis project (AID 489025); format: functional
# cells = format: functional
# [5] = NIH-3T3 fibroblast cytotoxicity, dose response, cytotoxicity control, cell-based, fluorescence, Alamar Blue, secondary assay (AID 2327); format: functional;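 further: NIH-3T3 mouse fibroblasts cultured with fluconazole at 8 µg/mL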
# [6] = C. albicans growth with fluconazole, confirmation, fluorescence, retest (AID 2467); format: functional, cell-based
# Vero = assay: cells; format: functional; conditions: Chlorocebus sabaeus
# BJ [7] = assay: cytotoxicity toward BJ-TERT fibroblasts, dose response, cell-based, RAS-independent, luminescence (AID 1933); format: functional; conditions: Homo sapiens
# BJ [8] = assay: cells; format: functional, cell-based; conditions: Homo sapiens
# [9] = Luminescence Cell-Based Dose Response HTS to Identify Inhibitors of 5'UTR Stem-Loop Driven Prion Protein mRNA Translation in H4 Neuroglioblastoma Cells. [Related pubchem assays: 1827 (Project Summary), 1813 (Primary HTS)]; format: functional
# BJ [10] = assay: cytotoxicity toward BJ-TERT-LT-ST fibroblasts, dose response, cell-based, RAS-independent, luminescence (AID 1935); format: functional; conditions: Homo sapiens;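 further: BJ fibroblasts immortalized with TERT plus LT and ST oncogenes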
# [11] = inhibitors of firefly luciferase expression or activity, dose response, H4 neuroglioma cells, luminescence (AID 1990); format: functional, cell-based
# [12] = inhibitors of SNCA 5'UTR-driven reporter translation, confirmation, H4 neuroglioma cells, luminescence (AID 1988); format: functional, cell-based
# [13] = cytotoxicity toward DRD oncogenic fibroblasts, dose response, cell-based, non-viral oncogenic, luminescence (AID 1934); format: functional; conditions: Homo sapiens
# [14] = cytotoxicity in HEK-293T cells, dose response, cytotoxicity control for TCR NF-kB inhibitor project, luminescence, T-cell screen hits (AID 489026); format: functional, cell-based;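 further: cells exposed to compound about 14 hours before the viability readout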
# Estrogen receptor = biological target: T3, Estrogen receptor (Homo sapiens, UniProt P03372);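 further: potency for inhibiting coactivator peptide recruitment to the receptor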
# T3 sequence (P03372 whole entry): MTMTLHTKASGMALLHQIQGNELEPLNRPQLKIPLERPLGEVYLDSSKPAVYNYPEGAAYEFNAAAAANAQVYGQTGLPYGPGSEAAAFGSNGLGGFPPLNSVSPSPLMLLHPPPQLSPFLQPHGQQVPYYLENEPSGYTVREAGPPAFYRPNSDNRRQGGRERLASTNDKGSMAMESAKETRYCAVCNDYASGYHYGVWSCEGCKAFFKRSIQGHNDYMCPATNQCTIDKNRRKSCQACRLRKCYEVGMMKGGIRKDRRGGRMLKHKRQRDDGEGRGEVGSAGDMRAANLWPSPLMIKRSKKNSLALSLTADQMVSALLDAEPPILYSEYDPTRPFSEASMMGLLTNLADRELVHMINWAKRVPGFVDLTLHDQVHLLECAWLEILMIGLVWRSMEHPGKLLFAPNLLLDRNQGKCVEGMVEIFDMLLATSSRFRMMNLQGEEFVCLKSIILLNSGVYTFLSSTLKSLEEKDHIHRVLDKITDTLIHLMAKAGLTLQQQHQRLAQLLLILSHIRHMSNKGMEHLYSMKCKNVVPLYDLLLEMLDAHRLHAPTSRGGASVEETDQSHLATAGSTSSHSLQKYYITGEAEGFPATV
# [15] = biological target: T4, Replicative DNA helicase DnaB (Mycobacterium tuberculosis, UniProt P9WMR3); assay: DnaB intein splicing inhibitors, dose response, biochemical, cell-free fluorescence (AID 449749); format: functional
# T4 sequence (P9WMR3 whole entry): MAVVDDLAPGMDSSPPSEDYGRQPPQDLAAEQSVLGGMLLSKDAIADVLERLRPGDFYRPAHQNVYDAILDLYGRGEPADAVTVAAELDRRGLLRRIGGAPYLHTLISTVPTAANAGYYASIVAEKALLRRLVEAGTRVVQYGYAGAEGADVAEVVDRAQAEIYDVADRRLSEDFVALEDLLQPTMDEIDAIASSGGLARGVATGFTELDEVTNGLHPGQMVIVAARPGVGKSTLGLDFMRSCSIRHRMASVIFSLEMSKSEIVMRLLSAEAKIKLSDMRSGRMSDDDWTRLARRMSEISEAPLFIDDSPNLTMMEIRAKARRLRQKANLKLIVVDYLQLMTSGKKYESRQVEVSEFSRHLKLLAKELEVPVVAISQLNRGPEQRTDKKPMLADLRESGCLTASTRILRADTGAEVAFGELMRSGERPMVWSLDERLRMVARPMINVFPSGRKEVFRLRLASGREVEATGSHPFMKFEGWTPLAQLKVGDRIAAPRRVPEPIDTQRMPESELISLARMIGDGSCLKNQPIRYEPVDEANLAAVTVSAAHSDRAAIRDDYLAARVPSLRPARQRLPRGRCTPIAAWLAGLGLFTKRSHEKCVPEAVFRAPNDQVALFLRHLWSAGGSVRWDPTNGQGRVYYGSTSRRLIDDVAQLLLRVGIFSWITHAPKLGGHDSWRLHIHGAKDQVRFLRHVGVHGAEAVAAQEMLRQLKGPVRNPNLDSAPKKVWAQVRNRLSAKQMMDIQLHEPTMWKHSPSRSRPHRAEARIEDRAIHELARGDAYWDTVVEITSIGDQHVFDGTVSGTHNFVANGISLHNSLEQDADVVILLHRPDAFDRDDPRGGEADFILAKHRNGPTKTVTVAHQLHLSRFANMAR
# Protein RecA = biological target: T5, Protein RecA (Mycobacterium tuberculosis, UniProt P9WHJ3); assay: Fluorescence Cell-Free Homogeneous Dose Retest to Identify Inhibitors of RecA-Intein Splicing Activity. [Related pubchem assays (depositor defined):AID2097, AID2223, AID489010, AID492950]; format: functional
# T5 sequence (P9WHJ3 whole entry): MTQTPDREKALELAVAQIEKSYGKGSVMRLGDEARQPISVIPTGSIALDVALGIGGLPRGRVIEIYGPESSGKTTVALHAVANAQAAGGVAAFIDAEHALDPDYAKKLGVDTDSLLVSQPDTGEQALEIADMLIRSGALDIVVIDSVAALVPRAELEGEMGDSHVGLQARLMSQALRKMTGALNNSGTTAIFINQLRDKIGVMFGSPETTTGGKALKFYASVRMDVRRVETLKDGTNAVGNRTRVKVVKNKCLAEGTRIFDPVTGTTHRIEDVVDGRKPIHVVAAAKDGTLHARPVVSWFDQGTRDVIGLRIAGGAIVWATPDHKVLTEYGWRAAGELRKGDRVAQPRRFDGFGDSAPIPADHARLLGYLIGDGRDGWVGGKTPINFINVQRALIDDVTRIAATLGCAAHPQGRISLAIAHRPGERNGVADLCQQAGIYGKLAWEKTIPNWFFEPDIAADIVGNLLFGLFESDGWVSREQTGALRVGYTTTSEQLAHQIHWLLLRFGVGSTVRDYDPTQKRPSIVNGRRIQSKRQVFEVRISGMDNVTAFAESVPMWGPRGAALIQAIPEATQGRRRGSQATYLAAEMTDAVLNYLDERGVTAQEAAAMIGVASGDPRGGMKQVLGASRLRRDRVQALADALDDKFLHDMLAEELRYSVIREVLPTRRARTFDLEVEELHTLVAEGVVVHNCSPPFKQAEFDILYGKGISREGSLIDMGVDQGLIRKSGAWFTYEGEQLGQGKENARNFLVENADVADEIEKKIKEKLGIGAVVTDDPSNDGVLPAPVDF
# [16] = biological target: T6, Type-1 angiotensin II receptor (Homo sapiens, UniProt P30556); assay: AT1 receptor antagonists, dose response, selectivity assay for APJ receptor antagonist project, cell-based, uHTS hits (AID 463214); format: functional;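 further: antagonist potency against angiotensin II stimulated AT1 response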
# T6 sequence (P30556 whole entry): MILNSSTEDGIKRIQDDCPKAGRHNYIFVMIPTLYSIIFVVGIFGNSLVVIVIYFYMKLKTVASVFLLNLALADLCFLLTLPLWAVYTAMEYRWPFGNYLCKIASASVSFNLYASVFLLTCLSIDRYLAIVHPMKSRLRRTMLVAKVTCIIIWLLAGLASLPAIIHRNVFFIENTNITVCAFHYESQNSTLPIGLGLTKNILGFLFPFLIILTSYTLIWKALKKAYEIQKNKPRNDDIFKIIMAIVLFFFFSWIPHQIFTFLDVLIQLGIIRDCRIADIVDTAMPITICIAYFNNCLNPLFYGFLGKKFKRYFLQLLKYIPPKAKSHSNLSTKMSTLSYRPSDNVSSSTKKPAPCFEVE
# Beta-galactosidase = Beta-galactosidase (Escherichia coli, UniProt Q8VNN2); assay: PubChem AID 485352; format: functional
# Cytochrome P450 3A4 = Cytochrome P450 3A4 (Homo sapiens, UniProt P08684);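 further: CYP3A4 tested as one member of a cytochrome P450 panel screen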
# [17] = biological target: Induced myeloid leukemia cell differentiation protein Mcl-1 (Homo sapiens, UniProt Q07820); format: functional
# Sequence of Induced myeloid leukemia cell differentiation protein Mcl-1 (Q07820 whole entry): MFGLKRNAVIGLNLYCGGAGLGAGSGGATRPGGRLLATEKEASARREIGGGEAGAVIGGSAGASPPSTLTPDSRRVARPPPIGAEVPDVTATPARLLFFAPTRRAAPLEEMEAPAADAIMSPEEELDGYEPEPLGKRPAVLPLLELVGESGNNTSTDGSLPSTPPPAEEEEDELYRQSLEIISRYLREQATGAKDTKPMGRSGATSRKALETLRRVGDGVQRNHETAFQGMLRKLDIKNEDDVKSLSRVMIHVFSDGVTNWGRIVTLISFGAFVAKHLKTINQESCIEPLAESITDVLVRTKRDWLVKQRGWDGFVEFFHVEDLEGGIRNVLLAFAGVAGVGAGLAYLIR
# T2 sequence (Q00975 whole entry): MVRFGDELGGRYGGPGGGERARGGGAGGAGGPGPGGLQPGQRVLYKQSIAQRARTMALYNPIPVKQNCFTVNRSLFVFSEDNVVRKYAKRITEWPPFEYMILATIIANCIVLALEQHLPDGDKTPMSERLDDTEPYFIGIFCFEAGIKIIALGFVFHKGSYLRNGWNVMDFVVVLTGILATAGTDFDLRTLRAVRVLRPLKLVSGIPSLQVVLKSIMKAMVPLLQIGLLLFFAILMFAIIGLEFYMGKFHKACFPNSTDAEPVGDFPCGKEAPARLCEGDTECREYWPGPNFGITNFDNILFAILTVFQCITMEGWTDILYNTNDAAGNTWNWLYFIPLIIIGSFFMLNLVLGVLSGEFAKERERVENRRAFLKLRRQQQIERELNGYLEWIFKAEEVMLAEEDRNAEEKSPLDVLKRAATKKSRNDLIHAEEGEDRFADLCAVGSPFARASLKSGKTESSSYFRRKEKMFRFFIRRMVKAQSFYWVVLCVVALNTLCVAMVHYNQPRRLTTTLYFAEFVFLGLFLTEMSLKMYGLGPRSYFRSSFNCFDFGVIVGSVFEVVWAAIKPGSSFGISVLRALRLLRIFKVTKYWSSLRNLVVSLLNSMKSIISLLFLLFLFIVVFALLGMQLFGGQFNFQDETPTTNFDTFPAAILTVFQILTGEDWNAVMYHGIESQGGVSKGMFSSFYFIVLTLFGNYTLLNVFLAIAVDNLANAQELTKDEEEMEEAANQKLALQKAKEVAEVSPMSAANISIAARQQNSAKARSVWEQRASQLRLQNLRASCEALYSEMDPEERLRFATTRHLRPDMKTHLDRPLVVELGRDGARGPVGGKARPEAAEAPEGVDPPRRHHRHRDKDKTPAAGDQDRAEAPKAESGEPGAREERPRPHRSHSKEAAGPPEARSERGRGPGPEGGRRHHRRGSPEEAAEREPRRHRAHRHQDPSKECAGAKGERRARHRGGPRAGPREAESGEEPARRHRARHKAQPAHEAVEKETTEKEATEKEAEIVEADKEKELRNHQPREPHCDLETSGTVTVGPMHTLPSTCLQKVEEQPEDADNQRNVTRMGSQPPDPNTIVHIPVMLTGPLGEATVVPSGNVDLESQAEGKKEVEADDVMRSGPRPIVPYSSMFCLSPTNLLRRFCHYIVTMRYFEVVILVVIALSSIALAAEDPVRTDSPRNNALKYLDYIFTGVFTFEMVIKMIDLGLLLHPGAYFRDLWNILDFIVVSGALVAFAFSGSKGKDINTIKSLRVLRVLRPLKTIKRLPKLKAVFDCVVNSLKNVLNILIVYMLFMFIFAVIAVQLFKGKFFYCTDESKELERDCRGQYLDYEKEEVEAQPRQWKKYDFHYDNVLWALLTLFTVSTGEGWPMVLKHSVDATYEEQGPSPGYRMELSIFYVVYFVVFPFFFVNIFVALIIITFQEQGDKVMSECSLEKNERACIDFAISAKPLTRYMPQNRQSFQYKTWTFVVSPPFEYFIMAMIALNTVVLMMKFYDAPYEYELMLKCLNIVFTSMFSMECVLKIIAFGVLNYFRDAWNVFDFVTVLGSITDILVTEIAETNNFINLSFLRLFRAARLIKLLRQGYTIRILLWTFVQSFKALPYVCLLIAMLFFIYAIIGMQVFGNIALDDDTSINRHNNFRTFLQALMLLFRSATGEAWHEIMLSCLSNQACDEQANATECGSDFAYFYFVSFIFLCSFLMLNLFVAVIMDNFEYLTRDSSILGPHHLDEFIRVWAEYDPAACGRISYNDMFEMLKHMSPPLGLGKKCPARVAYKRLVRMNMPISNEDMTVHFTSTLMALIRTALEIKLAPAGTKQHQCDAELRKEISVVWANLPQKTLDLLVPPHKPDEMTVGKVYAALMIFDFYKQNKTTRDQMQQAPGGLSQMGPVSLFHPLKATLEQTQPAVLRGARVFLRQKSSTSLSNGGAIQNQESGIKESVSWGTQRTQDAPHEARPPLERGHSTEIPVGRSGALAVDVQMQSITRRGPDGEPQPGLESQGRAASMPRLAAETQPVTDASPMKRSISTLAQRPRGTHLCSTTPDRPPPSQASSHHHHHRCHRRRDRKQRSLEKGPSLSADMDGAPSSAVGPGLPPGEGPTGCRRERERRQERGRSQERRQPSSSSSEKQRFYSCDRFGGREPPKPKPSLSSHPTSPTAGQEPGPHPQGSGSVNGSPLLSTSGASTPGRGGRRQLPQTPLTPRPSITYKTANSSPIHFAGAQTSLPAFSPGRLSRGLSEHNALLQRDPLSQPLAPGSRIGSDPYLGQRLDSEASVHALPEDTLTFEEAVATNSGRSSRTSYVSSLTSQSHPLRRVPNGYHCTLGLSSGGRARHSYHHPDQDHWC
# T2 sequence (Q02410 whole entry): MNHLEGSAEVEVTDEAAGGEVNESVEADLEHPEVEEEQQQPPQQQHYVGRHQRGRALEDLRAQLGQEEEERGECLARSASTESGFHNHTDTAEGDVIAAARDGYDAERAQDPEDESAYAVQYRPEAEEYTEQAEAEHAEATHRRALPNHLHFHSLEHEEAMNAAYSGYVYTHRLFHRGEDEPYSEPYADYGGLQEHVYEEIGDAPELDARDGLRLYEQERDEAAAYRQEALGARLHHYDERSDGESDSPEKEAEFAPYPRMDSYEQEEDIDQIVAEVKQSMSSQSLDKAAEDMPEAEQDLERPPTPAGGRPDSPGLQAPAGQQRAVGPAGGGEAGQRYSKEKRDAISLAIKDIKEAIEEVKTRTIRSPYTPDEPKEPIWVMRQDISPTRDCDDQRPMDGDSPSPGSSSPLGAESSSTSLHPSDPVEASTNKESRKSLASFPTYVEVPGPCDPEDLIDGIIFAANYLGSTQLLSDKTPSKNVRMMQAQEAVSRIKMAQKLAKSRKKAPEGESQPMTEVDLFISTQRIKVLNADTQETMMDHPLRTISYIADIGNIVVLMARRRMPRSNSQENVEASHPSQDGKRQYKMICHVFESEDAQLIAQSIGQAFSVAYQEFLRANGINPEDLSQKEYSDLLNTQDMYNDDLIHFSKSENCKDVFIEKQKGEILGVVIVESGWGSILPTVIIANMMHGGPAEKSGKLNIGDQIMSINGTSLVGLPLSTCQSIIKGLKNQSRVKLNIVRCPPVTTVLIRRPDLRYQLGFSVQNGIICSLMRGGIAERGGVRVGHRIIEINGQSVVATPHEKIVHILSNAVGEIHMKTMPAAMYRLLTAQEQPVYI
# Sequence of Cytochrome P450 3A4 (P08684 whole entry): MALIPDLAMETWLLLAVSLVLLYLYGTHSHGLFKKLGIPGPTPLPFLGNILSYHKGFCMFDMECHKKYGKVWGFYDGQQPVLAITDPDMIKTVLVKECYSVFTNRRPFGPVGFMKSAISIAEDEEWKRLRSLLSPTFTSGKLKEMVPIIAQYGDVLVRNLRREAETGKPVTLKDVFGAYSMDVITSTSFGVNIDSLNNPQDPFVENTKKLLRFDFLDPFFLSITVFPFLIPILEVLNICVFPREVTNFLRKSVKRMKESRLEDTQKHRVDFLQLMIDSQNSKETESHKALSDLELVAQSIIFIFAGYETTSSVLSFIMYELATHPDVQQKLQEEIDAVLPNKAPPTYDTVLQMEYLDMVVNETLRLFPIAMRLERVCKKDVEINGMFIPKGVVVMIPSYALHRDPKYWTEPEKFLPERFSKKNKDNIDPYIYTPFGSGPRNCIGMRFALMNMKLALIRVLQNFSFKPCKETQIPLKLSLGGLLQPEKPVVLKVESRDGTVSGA
# Sequence of Beta-galactosidase (Q8VNN2 whole entry): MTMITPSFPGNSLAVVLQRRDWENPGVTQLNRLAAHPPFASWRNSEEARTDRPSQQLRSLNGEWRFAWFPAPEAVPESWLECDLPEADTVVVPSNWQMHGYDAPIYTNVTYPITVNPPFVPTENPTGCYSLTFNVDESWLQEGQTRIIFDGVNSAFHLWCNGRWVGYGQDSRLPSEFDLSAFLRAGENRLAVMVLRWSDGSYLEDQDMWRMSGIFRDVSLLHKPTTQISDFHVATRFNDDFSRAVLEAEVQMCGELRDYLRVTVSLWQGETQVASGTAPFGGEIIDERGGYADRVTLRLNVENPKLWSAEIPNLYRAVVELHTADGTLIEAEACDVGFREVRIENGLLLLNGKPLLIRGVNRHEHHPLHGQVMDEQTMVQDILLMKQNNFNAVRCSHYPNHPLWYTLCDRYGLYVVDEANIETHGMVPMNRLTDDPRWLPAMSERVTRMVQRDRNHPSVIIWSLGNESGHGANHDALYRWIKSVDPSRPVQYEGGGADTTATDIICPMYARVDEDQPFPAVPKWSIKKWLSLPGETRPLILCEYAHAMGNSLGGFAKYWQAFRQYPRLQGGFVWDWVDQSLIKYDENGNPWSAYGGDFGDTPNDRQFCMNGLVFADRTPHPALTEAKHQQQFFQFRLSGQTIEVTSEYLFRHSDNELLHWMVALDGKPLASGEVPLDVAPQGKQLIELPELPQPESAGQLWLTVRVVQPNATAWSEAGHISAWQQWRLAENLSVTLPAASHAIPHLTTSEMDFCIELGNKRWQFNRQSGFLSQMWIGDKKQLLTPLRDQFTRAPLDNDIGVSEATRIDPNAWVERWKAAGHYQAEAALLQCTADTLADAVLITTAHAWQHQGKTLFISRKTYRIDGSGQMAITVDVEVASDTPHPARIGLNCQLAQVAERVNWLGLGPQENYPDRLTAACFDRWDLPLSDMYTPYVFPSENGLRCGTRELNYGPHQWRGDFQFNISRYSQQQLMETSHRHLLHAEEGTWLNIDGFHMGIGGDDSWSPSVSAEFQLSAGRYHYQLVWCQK
smiles,measurement,setting,value
Cc1cccc(Nc2cc(=O)[nH]c(=O)[nH]2)c1C,IC50,Coagulation factor XII,> 50 µM (inactive)
O=C(Nc1cnc(O)nc1O)c1ccc2c(c1)C(=O)N(c1cccc([N+](=O)[O-])c1)C2=O,IC50,[1],9.85 µM (active)
same,IC50,[2],> 50 µM (inactive)
OC(CNCCc1ccc(C(F)(F)F)cc1)COc1ccc2ccccc2c1 (stereo not drawn),AC50,[3],3.34 µM (active)
same,CC50,[4],> 40 µM (active)
same,IC50,cells,22.4 µM (active)
same,EC50,[5],7.21 µM (active)
same,EC50,[6],> 38 µM (not active)
same,CC50,Vero,16.6 µM (active)
CCOc1ccc(N=C(N)Nc2nc(CSc3nnc(C)s3)cc(=O)[nH]2)cc1,IC50,Coagulation factor XII,> 50 µM (inactive)
CCOc1ccc(NC(=N)Nc2nc(O)cc(CSc3nnc(C)s3)n2)cc1,EC50,BJ [7],1.11 µM (active)
same,EC50,BJ [8],20.6 µM (active)
same,EC50,[9],0.291 µM (active)
same,EC50,BJ [10],1.37 µM (active)
same,AC50,[3],0.298 µM (active)
same,EC50,[11],9.79 µM (active)
same,EC50,[12],5.83 µM (active)
same,EC50,[13],0.597 µM (active)
same,IC50,[14],> 80 µM (inactive)
CCN(CC)C(=O)C(C(=O)c1cccc([N+](=O)[O-])c1)n1cc(Cl)ccc1=O (stereo not drawn),EC50,BJ [7],> 150 µM (not active)
same,EC50,BJ [8],> 150 µM (not active)
same,EC50,BJ [10],> 150 µM (inconclusive)
same,EC50,[13],> 150 µM (not active)
O=c1[nH]c(-c2ccc3c(c2)OCO3)nc2c1sc(=S)n2-c1ccccc1,IC50,[1],5.13 µM (active)
same,IC50,[2],> 50 µM (inactive)
CCCc1nnc2n1N=C(c1ccc(-c3cc(Cl)ccc3Cl)o1)CS2,IC50,Estrogen receptor,13.4 µM (active)
CN1CCN(S(=O)(=O)c2ccc(Br)s2)CC1,IC50,Coagulation factor XII,> 50 µM (inactive)
O=C(CSc1nc2c(c(=O)n1-c1ccc(Br)cc1)SCC2)Nc1nccs1,IC50,Estrogen receptor,> 50 µM (not active)
COc1cc(NC(=O)c2ccccc2F)ccc1NC(=O)c1cc2ccccc2o1,IC50,[1],15.9 µM (active)
same,IC50,[2],> 50 µM (inactive)
COc1cccc(NC(=N)Nc2nc(O)cc(CSc3ccccn3)n2)c1,IC50,[14],> 80 µM (inactive)
COC(=O)CS(=O)(=O)c1nnc([C@H](Cc2ccccc2)NC(=O)OC(C)(C)C)o1,AC50,[15],6.11 µM (active)
same,EC50,Protein RecA,7.24 µM (active)
same,IC50,Coagulation factor XII,8.95 µM (active)
same,IC50,[16],12.4 µM (active)
same,EC50,Beta-galactosidase,> 40 µM (inactive)
COc1cc(OC)nc(NC(=O)C(C)C)n1,IC50,Estrogen receptor,> 50 µM (not active)
CCCCOc1ccccc1C1CC(=O)NC2=C1C(=O)CCC2 (stereo not drawn),AC50,Cytochrome P450 3A4,15.8 µM (inconclusive)
same,IC50,[14],> 80 µM (inactive)
COC(Cn1c(C)c(C(C)=O)c(C(C)=O)c1C)OC,IC50,Coagulation factor XII,> 50 µM (inactive)
CC(/C=C/c1ccco1)=N\NC(=O)c1cc(C)[nH]n1,IC50,[1],4.52 µM (active)
same,IC50,[2],11.8 µM (active)
same,IC50,[17],4.92 µM (active)
